In patent publication US12054495B2, “Substituted macrocyclic compounds and related methods of treatment” (Alkermes, Inc., priority 2019, dated 2024):

Key:
MDR1 = experiment: MDCK-MDR1 permeability assay; assay type: in vitro ADME; details: dog; for Papp A→B at 2 h, 3 μM: MDCK-MDR1, MDCK-MDR1 cells, apical to basolateral, 3 μM test compound, 2 hours at 37 degrees C; for efflux ratio at 2 h, 3 μM: MDCK-MDR1, Papp (basolateral to apical) divided by Papp (apical to basolateral), MDCK-MDR1 cells, read-out: Efflux ratio (ER)
Procedure: The bidirectional permeability (Apical to Basal and Basal to Apical directions) of test compounds in MDCK-MIDR1 cells were evaluated using MDCK-MIDR1 cells seeded in Solvo PreadyPort™ MIDCK 96-well plate. Once the plate was received from ReadyCell (Barcelona, Spain), it was treated as per PreadyPort™ user's manual.
For the Apical to Basolateral (A→B) permeability, 80 μL of test compound (3 μM) co-dosed with LY (Lucifer Yellow) (100 μM) in HBSS (Hank's Balanced Salt Solution) assay buffer was added to the donor side (A) while 250 μL of HBSS buffer was added to the receiver side (B). For the Basolateral to Apical (B→A) permeability, 255 μL of test compound (3 μM) in HBSS assay buffer was added to the donor side (B) while 75 μL of HBSS buffer containing LY (100 μM) was added to the receiver side (A).
The plate was placed in an incubator set at 37 degrees C. After 10 minutes of pre-warming, 5 μL aliquot was taken from donor compartment and set aside as the dosing solution. The MDCK-MDR1 incubation plate was placed back into the incubator for 2 hours of incubation at 37 degrees C. After 2 hours of incubation, 25 μL and 5 μL aliquots were removed from the receiver and donor sides, respectively. To the 5 μL aliquots taken from the donor sides (before and after a 2-hour incubation) were diluted with 20 μL of the HBSS buffer. All samples were mixed with 150 μL with acetonitrile containing internal standard (IS) and 200 μL water, and analyzed by LC-MS/MS.
The apparent permeability (Papp) was calculated using the following formula: Papp=dQ/dt×1/A×C0 where: • dQ/dt: amount of translocated material over incubation time (nmol/s) • A: area of insert (0.14 cm^2 for PreadyPort™ MDR1-96) • C0: initial concentration of product applied in apical (A→B) or basal (B→A) compartment (nmol/mL)
The efflux ratio (ER) was measured by dividing the Papp (basolateral to apical direction) by Papp (apical to basolateral direction). It is a general measure of the involvement of active processes. An ER>2 is considered positive for active transport.
The data reported in Table 3 were obtained according to the MDCK-MIDR1 permeability assay described above.

[1] = Hepatocytes stability assay (human hepatocytes); assay type: in vitro ADME; details: both sexes, cryopreserved hepatocytes, 1 μM test compound, 1×10^6 cell/mL, 37 degrees C, read-out: CLint (μL/min/million cells)
Procedure: (§1) In vitro metabolic stability was assessed using cryopreserved hepatocytes from male Sprague Dawley rats and a pool of 50 mixed gender humans (BioIVT, Baltimore, MD). The incubation mixtures were prepared by mixing 250 μL of pre-warmed KHB (Krebs-Henseleit buffer) containing 2×10^6 cell/mL of hepatocytes with 250 μL of pre-warmed KHB buffer containing 2 μM of test compounds in a 48-well plate, giving a final concentration of 1 μM test compound (0.1% DMSO) and 1×10^6 cell/mL of hepatocytes. The reaction mixture was incubated at 37 degrees C. A 50 μL aliquot of incubation mixture was taken at time points (0, 15, 30, 60, 120 and 240 minutes) and transferred into a 96-well plate containing 300 μL ice-cold acetonitrile (containing 30 ng/mL of labetalol and 10 ng/mL of Naltrexone-d3 as internal standards) and immediately placed in ice to terminate the reaction. Samples were centrifuged, and supernatants were transferred into 96-well plates for liquid chromatography with tandem mass spectrometry (LC-MS/MS) analysis to monitor the depletion of the test compound.
(§2) Data was calculated as percent remaining by assuming zero-minute time point peak area ratio (analyte/IS) as 100% and dividing remaining time point peak area ratios by zero-minute time point peak area ratio. Data were fitted to a first-order decay model to determine half-life. From a plot of log (ln) peak area against time, the slope of the line was determined. Subsequently, half-life (T1/2) and intrinsic clearance (CLint) were calculated using the equations below: Elimination rate constant (k)=(−slope) Half-life (T1/2)min=0.693/k Intrinsic Clearance (CLint) (mL/min/million cells)=(V×0.693)/T1/2 V=incubation volume mL/number of cells The in vitro T1/2 was converted to in vitro intrinsic clearance (CLint,hep) in units of mL/min/kg using the formula shown below:
(§3) [formula] The in vitro intrinsic clearance (CLint,hep) was scaled to in vivo hepatic clearance (CL,hep) using the following equation which was adapted from a well-stirred model.
(§4) [formula] where Q is the liver blood flow and fu is the fraction unbound (assumed to be unity in this case). All parameters used in the calculation are shown below (Table 4).
(§5) The extraction ratio (ER) was calculated by dividing the hepatic clearance of a compound to the liver blood flow. The data reported in Table 5 were obtained according to the human hepatocytes stability assay described above.

human hepatocytes = experiment: Hepatocytes stability assay (human hepatocytes); assay type: in vitro ADME; details: scaled hepatic clearance divided by liver blood flow, fu assumed unity
Procedure: as §1, §2, §3, §4, §5

[2] = target: T1, human orexin-2 receptor (OX2R) (Homo sapiens, UniProt O43614); experiment: Human OX2R IP1 assay; assay type: cell-based; details: T-Rex CHO cells stably overexpressing human OX2R, IP1 accumulation, 1 hr at 37 degrees C; mean EC50; ∧ = racemic mixture
T1 construct: expressed in transfected cells
T1 sequence (O43614 1-444): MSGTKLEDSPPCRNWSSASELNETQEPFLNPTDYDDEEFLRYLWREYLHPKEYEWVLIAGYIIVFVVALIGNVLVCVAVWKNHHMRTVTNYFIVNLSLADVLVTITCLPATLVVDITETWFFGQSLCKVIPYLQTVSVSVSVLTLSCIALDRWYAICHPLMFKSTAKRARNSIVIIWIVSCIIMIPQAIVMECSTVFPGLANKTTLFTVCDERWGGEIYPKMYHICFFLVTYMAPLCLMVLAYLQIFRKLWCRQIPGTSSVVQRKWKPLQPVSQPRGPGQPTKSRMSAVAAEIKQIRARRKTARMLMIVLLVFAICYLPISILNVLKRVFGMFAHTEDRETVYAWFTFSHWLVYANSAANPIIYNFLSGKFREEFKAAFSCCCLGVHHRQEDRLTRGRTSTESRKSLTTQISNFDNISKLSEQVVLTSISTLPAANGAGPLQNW
Procedure: T-Rex CHO cells stably overexpressing the human orexin-2 receptor (OX2R) were induced overnight with 1 μg/mL of doxycycline in a T225 flask. 24 hours post induction, cells were lifted with accutase and plated into a 384-well proxy plate at 30,000 cells/well. Cells were then treated with different test compounds in 1× stimulation buffer containing 10 mM Hepes, 1 mM CaCl2), 0.5 mM MgCl2, 4.2 mM KCl, 146 mM NaCl, 5.5 mM glucose, and 50 mM LiCl, pH 7.4, for 1 hr at 37 degrees C. Following incubation, the reaction was terminated by the addition of detection mix, which is composed of IP1-d2 and anti-IP1-cryptate diluted in lysis buffer as well as 1× stimulation buffer. The plates were allowed to incubate for 1 hour at room temperature and were then read in the EnVision® multimode plate reader, measuring inositol phosphate levels.
Cisbio IP1 is a cell-based functional assay quantifying the accumulation of inositol monophosphate (IP), a metabolite released as a result of orexin 2 receptor activation through the phospholipase C-Gq signaling pathway. This is a competitive immunoassay in which the IP1 produced by the cells upon receptor activation competes with the IP1 analog coupled to the d2 fluorophore (acceptor) for binding to an anti-IP1 monoclonal antibody labeled with Eu cryptate (donor). The measured HTRF-FRET based signal is inversely proportional to the IP1 concentration produced.
The EC50 values reported in Table 2 were obtained according to the human OX2R IP1 assay described above. Data are the mean EC50 values ±S.E.M. The compound methyl (2R,3S)-3-((methylsulfonyl)amino)-2-(((cis-4-phenylcyclohexyl)oxy)methyl)-piperidine-1-carboxylate is a reference compound which is disclosed in Example 5 of PCT publication no. WO2017/135306.

SMILES | Papp A→B at 2 h, 3 μM (MDR1) [×10⁻⁶ cm/s] | efflux ratio at 2 h, 3 μM (MDR1) | hepatocyte CLint at 1 μM [1] [µL/min/1e6 cells] | Extraction Ratio (ER) (human hepatocytes) | EC50 [2] [µM]
C[C@H]1CN2CCC[C@H](NS(C)(=O)=O)C2COC2CCC(CC2)c2ccccc2O1 (stereo partly drawn) [Compound 48] | 7.3 | 1.5 | 60 | 0.90 | < 0.1
[2H][C@@H]1[C@@H]2C[C@H]([2H])[C@@]([2H])(c3cc(F)cc(F)c3OCC(=O)N3CCC[C@H](NS(C)(=O)=O)C3CO2)[C@@H]1[2H] (stereo partly drawn) [Compound 50] | 1.2 | 21 | 16 | 0.70 | < 0.1
[2H]C1([2H])COc2ccccc2C2CCC(CC2)OCC2[C@@H](NS(C)(=O)=O)CCCN21 (stereo partly drawn) [Compound 60] | 8.8 | 1.4 | 54 | 0.89 | 0.1 to 1
C[C@H]1COc2ccccc2C2CCC(CC2)OCC2[C@@H](NS(C)(=O)=O)CCCN21 (stereo partly drawn) [Compound 62] | 6.8 | 2.2 | 18 | 0.89 | > 1
C[C@@H]1COc2ccccc2C2CCC(CC2)OCC2[C@@H](NS(C)(=O)=O)CCCN21 (stereo partly drawn) [Compound 63] | 9.1 | 0.75 | 40 | 0.86 | > 1

Results, then the compound that gave them:

Papp A→B at 2 h, 3 μM (MDR1) [×10⁻⁶ cm/s] | efflux ratio at 2 h, 3 μM (MDR1) | hepatocyte CLint at 1 μM [1] [µL/min/1e6 cells] | Extraction Ratio (ER) (human hepatocytes) | EC50 [2] [µM] | SMILES
0.48 | 3.8 | 5.8 | 0.46 | < 0.1 | CS(=O)(=O)N[C@H]1CCCN2C(=O)COc3ccccc3C3CC[C@@H](CO3)OCC12 (stereo partly drawn) [Compound 8]
0.45 | 2.6 | 6.7 | 0.50 | < 0.1 | CS(=O)(=O)N[C@H]1CCCN2C(=O)COc3ccccc3C3CC[C@H](CO3)OCC12 (stereo partly drawn) [Compound 9]
0.91 | 27 | 30 | 0.82 | < 0.1 | C[C@@H]1Oc2ccccc2C2CCC(CC2)OCC2[C@@H](NS(C)(=O)=O)CCCN2C1=O (stereo partly drawn) [Compound 37]
0.77 | 18 | 30 | 0.82 | < 0.1 | C[C@H]1Oc2ccccc2C2CCC(CC2)OCC2[C@@H](NS(C)(=O)=O)CCCN2C1=O (stereo partly drawn) [Compound 38]
